Data on 29 molecules can be found in US7960376B2, “Benzo-fused heterocycles” (priority 2007, dated 2011).

Structures are written as SMILES.

What all share (format): cell-based
Test [1] deals with human CB2 receptor (hCB2) (Homo sapiens, UniProt P34972). The test is described as follows: cell-based. The note with it: intracellular cAMP, CHO-K1 cells, NKH-477 prestimulated; + agonist, − inverse agonist.
Test [2] addresses human CB1 receptor (hCB1) (Homo sapiens, UniProt P21554). The test is described as follows: cAMP assay (LANCE TR-FRET) in CHO-K1 cells expressing hCB1. The note with it: intracellular cAMP, NKH-477 prestimulated, + agonist, − inverse agonist. Background: Changes in cAMP serve as a functional read-out for many G protein-coupled receptors.
Test [3] addresses T1, rat CB2 receptor (rCB2) (Rattus norvegicus, UniProt Q9QZN9).
T1 sequence (Q9QZN9 1-360): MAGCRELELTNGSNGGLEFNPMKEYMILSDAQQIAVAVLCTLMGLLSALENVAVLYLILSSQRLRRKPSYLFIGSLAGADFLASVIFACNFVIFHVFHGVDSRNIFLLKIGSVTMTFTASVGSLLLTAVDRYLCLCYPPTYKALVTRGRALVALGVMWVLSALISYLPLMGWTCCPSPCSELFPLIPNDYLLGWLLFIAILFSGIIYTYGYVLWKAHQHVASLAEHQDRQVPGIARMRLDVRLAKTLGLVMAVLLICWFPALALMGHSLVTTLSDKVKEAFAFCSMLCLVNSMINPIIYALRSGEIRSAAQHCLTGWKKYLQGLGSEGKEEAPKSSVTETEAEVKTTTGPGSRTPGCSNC
The test is described as follows: cell-based. As to conditions: intracellular cAMP, CHO-K1 cells, NKH-477 prestimulated; + agonist, − inverse agonist.

Sequence of human CB1 receptor (hCB1) (P21554 whole entry): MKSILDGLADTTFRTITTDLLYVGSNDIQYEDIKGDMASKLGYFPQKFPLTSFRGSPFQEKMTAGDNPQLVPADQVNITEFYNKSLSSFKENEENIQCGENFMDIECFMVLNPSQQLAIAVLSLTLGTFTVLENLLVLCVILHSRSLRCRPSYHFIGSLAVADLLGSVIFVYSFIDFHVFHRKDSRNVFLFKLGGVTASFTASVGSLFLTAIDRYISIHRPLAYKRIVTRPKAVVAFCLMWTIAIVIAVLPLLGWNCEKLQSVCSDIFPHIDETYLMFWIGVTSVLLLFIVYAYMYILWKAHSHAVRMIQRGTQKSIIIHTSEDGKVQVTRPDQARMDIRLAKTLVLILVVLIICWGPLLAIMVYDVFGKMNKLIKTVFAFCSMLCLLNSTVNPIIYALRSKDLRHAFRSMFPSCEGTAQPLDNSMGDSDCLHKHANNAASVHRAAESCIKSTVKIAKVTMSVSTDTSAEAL
Sequence of human CB2 receptor (hCB2) (P34972 whole entry): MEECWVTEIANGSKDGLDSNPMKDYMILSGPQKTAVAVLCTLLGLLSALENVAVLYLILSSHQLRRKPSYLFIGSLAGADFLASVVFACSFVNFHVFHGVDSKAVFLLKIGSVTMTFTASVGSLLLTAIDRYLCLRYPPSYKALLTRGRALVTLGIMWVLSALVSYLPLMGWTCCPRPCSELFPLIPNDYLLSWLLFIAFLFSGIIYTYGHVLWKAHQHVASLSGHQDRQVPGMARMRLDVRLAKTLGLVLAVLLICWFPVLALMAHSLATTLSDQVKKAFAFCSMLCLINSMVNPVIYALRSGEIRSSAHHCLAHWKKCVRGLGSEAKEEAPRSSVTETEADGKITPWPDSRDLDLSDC

For `CC(C)CNC(=O)c1ccc2c(c1)N(C(=O)c1ccc(Cl)cc1)CCS2` [Example 1, 4-(4-chlorobenzoyl)-N-isobutyl-3,4-dihydro-2H-benzo[b][1,4]thiazine-6-carboxamide], the “hCB2 EC50 range” value in test [1] was “−E”. Also, in test [2], the “hCB1 EC50 range” value is “−E”.

Consider `CC(C)CNC(=O)c1ccc2c(c1)N(C(=O)c1ccc(F)cc1)CCS2` [Example 3, 4-(4-fluorobenzoyl)-N-isobutyl-3,4-dihydro-2H-benzo[b][1,4] thiazine-6-carboxamide], for which the “rCB2 EC50 range” value in test [3] is given as “−E”. Moreover, in test [2], the “hCB1 EC50 range” value is “−E”. `Cc1ccc(C(=O)N2CCSc3ccc(C(=O)NCC(C)C)cc32)cc1` [Example 4, N-isobutyl-4-(4-methylbenzoyl)-3,4-dihydro-2H-benzo[b][1,4] thiazine-6-carboxamide]: the “hCB2 EC50 range” value in test [1] was “−E”. Also, the “hCB1 EC50 range” value in test [2] was “−E”. Take `CC(C)(C)NC(=O)c1ccc2c(c1)N(C(=O)c1ccc(F)cc1)CCS2` [Example 6, N-tert-butyl-4-(4-fluorobenzoyl)-3,4-dihydro-2H-benzo[b][1,4] thiazine-6-carboxamide]: the “rCB2 EC50 range” value in test [3] is recorded as “−E”. The “hCB1 EC50 range” value in test [2] was “−E”. With `COc1ccc(C(=O)N2CCSc3ccc(C(=O)NC(C)(C)C)cc32)cc1` [Example 7, N-tert-butyl-4-(4-methoxybenzoyl)-3,4-dihydro-2H-benzo[b] [1,4]thiazine-6-carboxamide], the “rCB2 EC50 range” value in test [3] is on record as “−E”. The “hCB1 EC50 range” value in test [2] is listed as “−E”. Take `Cc1ccc(C(=O)N2CCSc3ccc(C(=O)NC(C)(C)C)cc32)cc1` [Example 8, N-tert-butyl-4-(4-methylbenzoyl)-3,4-dihydro-2H-benzo[b][1,4]thiazine-6-carboxamide]: the “hCB1 EC50 range” value in test [2] is recorded as “−E”. As for `O=C(NC1CCCC1)c1ccc2c(c1)N(C(=O)c1ccc(F)cc1)CCS2` [Example 12, N-cyclopentyl-4-(4-fluorobenzoyl)-3,4-dihydro-2H-benzo[b] [1,4]thiazine-6-carboxamide], in test [3], the “rCB2 EC50 range” value is given as “−D”. The “hCB1 EC50 range” value in test [2] is “−E”.

`CCC(=O)N1CCSc2ccc(C(=O)NC34CC5CC(CC(C5)C3)C4)cc21` [Example 39, N-(1-adamantyl)-4-propionyl-3,4-dihydro-2H-benzo[b][1,4]thiazine-6-carboxamide]: in test [3], the “rCB2 EC50 range” value is listed as “−E”. Besides, in test [2], the “hCB1 EC50 range” value was “−E”. As for `O=C(NC12CC3CC(CC(C3)C1)C2)c1ccc2c(c1)N(S(=O)(=O)c1ccc(F)cc1)CCS2` [Example 51, N-(1-adamantyl)-4-(4-fluorophenylsulfonyl)-3,4-dihydro-2H-benzo[b][1,4]thiazine-6-carboxamide], the “rCB2 EC50 range” value in test [3] was “−C”. Moreover, the “hCB1 EC50 range” value in test [2] was “+D”. On to `O=C(c1ccc2c(c1)N(S(=O)(=O)c1ccccc1)CCS2)N1CCCC1` [Example 66, (4-(phenylsulfonyl)-3,4-dihydro-2H-benzo[b][1,4]thiazin-6-yl)(pyrrolidin-1-yl)methanone], for which the “hCB2 EC50 range” value in test [1] is “+D”. Moreover, the “rCB2 EC50 range” value in test [3] is on record as “+D”.

As to `O=C(c1ccc2c(c1)N(S(=O)(=O)c1ccccc1)CCS2)N1CCCCC1` [Example 67, (4-(phenylsulfonyl)-3,4-dihydro-2H-benzo[b][1,4]thiazin-6-yl)(piperidin-1-yl)methanone], the “hCB2 EC50 range” value in test [1] is listed as “+D”. Also, the “rCB2 EC50 range” value in test [3] is “+C”.

As for `O=C(c1ccc2c(c1)N(S(=O)(=O)c1ccccc1)CCS2)N1CCOCC1` [Example 68], in test [1], the “hCB2 EC50 range” value is “+D”. Also, in test [3], the “rCB2 EC50 range” value is given as “+D”. Consider `CN(C)C(=O)c1ccc2c(c1)N(S(=O)(=O)c1ccc(F)cc1)CCS2` [Example 69, 4-(4-fluorophenylsulfonyl)-N,N-dimethyl-3,4-dihydro-2H-benzo[b][1,4]thiazine-6-carboxamide], for which, in test [1], the “hCB2 EC50 range” value was “+E”. In test [3], the “rCB2 EC50 range” value is given as “+D”. Turning to `CCN(CC)C(=O)c1ccc2c(c1)N(S(=O)(=O)c1ccc(F)cc1)CCS2` [Example 70, N,N-diethyl-4-(4-fluorophenylsulfonyl)-3,4-dihydro-2H-benzo[b][1,4]thiazine-6-carboxamide], the “hCB2 EC50 range” value in test [1] is reported as “+D”. Further, the “rCB2 EC50 range” value in test [3] is recorded as “+C”.

Consider `CN(C)C(=O)c1ccc2c(c1)N(S(=O)(=O)c1ccc(C(F)(F)F)cc1)CCS2` [Example 72, N,N-dimethyl-4-(4-(trifluoromethyl)phenylsulfonyl)-3,4-dihydro-2H-benzo[b][1,4]thiazine-6-carboxamide], for which the “hCB2 EC50 range” value in test [1] was “+C”. Further, the “rCB2 EC50 range” value in test [3] is “+C”. Take `O=C(c1ccc2c(c1)N(S(=O)(=O)c1ccc(C(F)(F)F)cc1)CCS2)N1CCCC1` [Example 74, pyrrolidin-1-yl(4-(4-(trifluoromethyl)phenylsulfonyl)-3,4-dihydro-2H-benzo[b][1,4]thiazin-6-yl)methanone]: the “hCB2 EC50 range” value in test [1] is on record as “+E”. In addition, in test [3], the “rCB2 EC50 range” value is “−C”. The like results for `O=C(c1ccc2c(c1)N(S(=O)(=O)c1ccc(C(F)(F)F)cc1)CCS2)N1CCOCC1` [Example 76, morpholino(4-(4-(trifluoromethyl)phenylsulfonyl)-3,4-dihydro-2H-benzo[b][1,4]thiazin-6-yl)methanone] were, in that order, “+D” and “+C”. In the same order, the values of `O=C(NNC(=O)c1ccc2c(c1)N(S(=O)(=O)c1ccc(F)cc1)CCS2)c1ccccc1` [Example 78, N′-benzoyl-4-(4-fluorophenylsulfonyl)-3,4-dihydro-2H-benzo[b][1,4]thiazine-6-carbohydrazide] are “+E” and “+D”. As for `O=C(NNC(=O)c1ccc2c(c1)N(S(=O)(=O)c1ccc(C(F)(F)F)cc1)CCS2)c1ccccc1` [Example 79, N′-benzoyl-4-(4-(trifluoromethyl)phenylsulfonyl)-3,4-dihydro-2H-benzo[b][1,4]thiazine-6-carbohydrazide], in test [1], the “hCB2 EC50 range” value is given as “+D”. The “rCB2 EC50 range” value in test [3] was “+D”.

Consider `O=S(=O)(c1ccc(C(F)(F)F)cc1)N1CCSc2ccc(-c3nc(-c4ccccn4)no3)cc21` [Example 81, 3-(pyridin-2-yl)-5-(4-(4-(trifluoromethyl)phenylsulfonyl)-3,4-dihydro-2H-benzo[b][1,4]thiazin-6-yl)-1,2,4-oxadiazole], for which the “hCB2 EC50 range” value in test [1] is “+B”. The “rCB2 EC50 range” value in test [3] was “+A”. As to `CCc1noc(-c2ccc3c(c2)N(S(=O)(=O)c2ccccc2)CCS3)n1` [Example 86], in test [1], the “hCB2 EC50 range” value was “+B”. In test [3], the “rCB2 EC50 range” value is given as “+A”. For `CC(C)CNC(=O)c1ccc2c(c1)N(S(=O)(=O)c1ccccc1)CCC(C)(C)S2` [Example 92, N-isobutyl-2,2-dimethyl-5-(phenyl-sulfonyl)-2,3,4,5-tetrahydrobenzo[b][1,4] thiazepine-7-carboxamide], the “rCB2 EC50 range” value in test [3] is recorded as “−E”. Also, the “hCB1 EC50 range” value in test [2] was “−E”. For the molecule `CC1(C)CCN(S(=O)(=O)c2ccccc2)c2cc(C(=O)N3CCCCC3)ccc2S1` [Example 93, (2,2-dimethyl-5-(phenylsulfonyl)-2,3,4,5-tetrahydro-benzo[b][1,4]thiazepin-7-yl)(piperidin-1-yl)methanone], the “rCB2 EC50 range” value in test [3] is “+C”. Also, the “hCB1 EC50 range” value in test [2] was “−E”.

With `CC1(C)CCN(S(=O)(=O)c2ccccc2)c2cc(C(=O)N3CCOCC3)ccc2S1` [Example 94, (2,2-dimethyl-5-(phenylsulfonyl)-2,3,4,5-tetrahydro-benzo[b][1,4]thiazepin-7-yl)(morpholino)-methanone], in test [1], the “hCB2 EC50 range” value is listed as “+E”. Also, the “rCB2 EC50 range” value in test [3] is “+D”. Regarding `COC(=O)[C@@H](NC(=O)c1ccc2c(c1)N(S(=O)(=O)c1ccccc1)CCC(C)(C)S2)C(C)(C)C` [Example 95, (S)-methyl 2-(2,2-dimethyl-5-(phenyl-sulfonyl)-2,3,4,5-tetrahydrobenzo[b][1,4]thiazepine-7-carboxamido)-3,3-dimethylbutanoate], the “hCB2 EC50 range” value in test [1] is recorded as “+D”. The “hCB1 EC50 range” value in test [2] is “−D”. As to `CC(C)(C)CNC(=O)c1ccc2c(c1)N(S(=O)(=O)c1ccccc1)CCC(C)(C)S2` [Example 96, 2,2-dimethyl-N-neo-pentyl-5-(phenyl-sulfonyl)-2,3,4,5-tetrahydrobenzo[b][1,4] thiazepine-7-carboxamide], the “hCB2 EC50 range” value in test [1] is recorded as “+D”. In test [2], the “hCB1 EC50 range” value was “−D”.

With `CC1(C)CCN(S(=O)(=O)c2ccc(F)cc2)c2cc(C(=O)NCC3CCOCC3)ccc2S1` [Example 99, 5-(4-fluorophenyl-sulfonyl)-2,2-dimethyl-N-((tetrahydro-2H-pyran-4-yl)methyl)-2,3,4,5-tetrahydro-benzo[b][1,4]thiazepine-7-carboxamide], the “rCB2 EC50 range” value in test [3] was “−C”. Also, the “hCB1 EC50 range” value in test [2] is on record as “−E”. Turning to `Cc1nnc(-c2ccc3c(c2)N(S(=O)(=O)c2cn(C)cn2)CCS3)o1` [Example 106, 2-methyl-5-(4-(1-methyl-1H-imidazol-4-ylsulfonyl)-3,4-dihydro-2H-benzo[b][1,4]thiazin-6-yl)-1,3,4-oxadiazole], the “hCB2 EC50 range” value in test [1] is recorded as “+E”. The “rCB2 EC50 range” value in test [3] is “+D”. Consider `O=S(=O)(c1ccc(C(F)(F)F)cc1)N1CCSc2ccc(-c3ncc(-c4ccccc4)[nH]3)cc21` [Example 107, 6-(5-phenyl-1H-imidazol-2-yl)-4-(4-(trifluoromethyl)phenylsulfonyl)-3,4-dihydro-2H-benzo[b][1,4]thiazine], for which the “hCB2 EC50 range” value in test [1] was “+C”. In test [3], the “rCB2 EC50 range” value is “+B”.
